# Assay results published in patent publication US12435010B1, “4-iodopyrazole coordination compound and preparation method and use thereof” (Institute of Applied Ecology, Chinese Academy of Sciences, priority 2024, dated 2025).
# Legend:
# nitrobacteria = assay: nitrification inhibition activity in air-dry soil with urea; settings: for Nitrification inhibition rate dN / Mass fraction of nitrate nitrogen in the sample solution ω1: 10.00 g air-dry soil, 0.10 g urea, 48 h; for Mass fraction of nitrate nitrogen in the sample solution ω1: control ω2=948.6
# Experimental: 2. A method for determining nitrification inhibition activity is as follows. […] 4-iodopyrazole coordination compound prepared in Embodiment 1 were respectively weighed, and placed into 500 ml conical flasks respectively; 10.00 g of air-dry soil, 0.10 g of urea and 100 mL of phosphate buffer were added to each flask; the conical flasks were simultaneously place into a thermostatic culture oscillator (180 rpm) for oscillation for 48 h, and then the resulting solutions were filtered to determine mass fraction ω1 of nitrate nitrogen (including nitrite nitrogen) in the sample and the control sample solution respectively. Calculation of nitrification inhibition rate: the nitrification inhibition rate of binuclear ligands with different addition amounts was calculated, and the results are shown in Table 2. [formula] • where dN is nitrification inhibition rate (%); • ω1 is mass fraction of nitrate nitrogen (including nitrite nitrogen) in the sample; and • ω2 is mass fraction of nitrate nitrogen (including nitrite nitrogen) in the control sample, and ω2=948.6.
# urease = urease (Canavalia ensiformis, UniProt P07374); settings: read-out: IC50 of urease inhibition; urease 10 KU/L, preincubated 1 h at 37° C., phosphate buffer pH 6.8 with 500 mM urea; modified Karber method
# urease, sequence (P07374 whole entry, looked up): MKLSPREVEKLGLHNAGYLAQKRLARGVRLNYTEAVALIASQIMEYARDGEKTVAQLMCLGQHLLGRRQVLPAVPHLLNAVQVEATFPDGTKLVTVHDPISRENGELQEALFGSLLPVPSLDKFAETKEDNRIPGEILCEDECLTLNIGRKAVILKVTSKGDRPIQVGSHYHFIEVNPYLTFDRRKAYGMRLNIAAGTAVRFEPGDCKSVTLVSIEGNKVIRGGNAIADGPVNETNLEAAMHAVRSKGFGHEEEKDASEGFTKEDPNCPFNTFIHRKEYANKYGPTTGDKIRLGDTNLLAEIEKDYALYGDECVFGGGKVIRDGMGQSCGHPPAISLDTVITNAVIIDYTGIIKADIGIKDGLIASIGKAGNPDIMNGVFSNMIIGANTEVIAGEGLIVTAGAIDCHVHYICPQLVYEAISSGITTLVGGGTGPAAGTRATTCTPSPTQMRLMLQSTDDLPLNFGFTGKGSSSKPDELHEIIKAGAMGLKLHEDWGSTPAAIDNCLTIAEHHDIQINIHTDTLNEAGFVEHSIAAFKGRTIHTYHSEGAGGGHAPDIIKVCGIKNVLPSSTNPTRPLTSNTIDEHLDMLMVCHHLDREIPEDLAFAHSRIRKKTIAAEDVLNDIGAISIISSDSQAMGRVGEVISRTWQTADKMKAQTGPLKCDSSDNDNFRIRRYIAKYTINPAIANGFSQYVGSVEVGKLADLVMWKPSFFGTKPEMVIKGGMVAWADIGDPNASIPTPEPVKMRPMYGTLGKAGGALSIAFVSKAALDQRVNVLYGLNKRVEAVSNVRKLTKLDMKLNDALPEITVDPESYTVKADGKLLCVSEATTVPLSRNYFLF
# Experimental: An endpoint of the testing was determined by the phenol red indicator, and the testing was stopped when the solution changed from pale yellow to red.
compound,measurement,setting,value
Ic1cn[nH]c1.Ic1cn[nH]c1.[Cl][Cu][Cl] [copper chloride-linked 4-iodopyrazole coordination compound],nitrification inhibition rates,nitrobacteria; all addition amounts of Table 2,greater than 9%
same,Nitrification inhibition rate dN,nitrobacteria; mass of compound 0.03 g,9.16%
same,Mass fraction of nitrate nitrogen in the sample solution ω1,nitrobacteria; mass of compound 0.03 g,861.7
same,Nitrification inhibition rate dN,nitrobacteria; mass of compound 0.05 g,9.79%
same,Mass fraction of nitrate nitrogen in the sample solution ω1,nitrobacteria; mass of compound 0.05 g,855.8
same,Nitrification inhibition rate dN,nitrobacteria; mass of compound 0.07 g,11.09%
same,Mass fraction of nitrate nitrogen in the sample solution ω1,nitrobacteria; mass of compound 0.07 g,843.4
same,Nitrification inhibition rate dN,nitrobacteria; mass of compound 0.10 g,15.57%
same,Mass fraction of nitrate nitrogen in the sample solution ω1,nitrobacteria; mass of compound 0.10 g,800.9
same,IC50,urease,2580 ± 40 nM
